Key:
Format in all cases: cell-based
TNF-α = TNF-α cytokine activation in human PBMC (MSD assay); details: Homo sapiens, PBMC, 24 h
Experimental: (§1) The other below tests involving measuring the in vitro activity of some compounds of the disclosure on cytokines IFN-α2a, IL-6, IL29 and TNF-α were carried out using human PBMC (PBMCs).
(§2) The activity described below, with respect to TLR7, TLR8, IFN-α2a, IL-6, IL29 and TNF-α, is given by the half maximal effective concentration (EC50), which corresponds to the concentration required to obtain a 50% of the activation. The lower the EC50, the less the concentration of the compound is required to produce 50% of maximum activation and the higher the potency.
(§3) In Vitro Assay to Determine IFN-α2a, IL-6, IL29 and TNF-α Cytokine Activation:
(§4) Peripheral blood mononuclear cells were isolated by Ficoll density gradient centrifugation from peripheral blood samples obtained from healthy donors (EFS). Isolated PBMCs are washed twice with PBS and resuspended in RPMI-1640 medium supplement with 10% fetal bovine serum (FBS) at 5.10^5 cells/well in a 96-well plate. The cells were then incubated with the compounds to test at various doses (20 μM to 4.8.10-6 μM final) for 24 h at 37° C., 5% CO2. After 24 h treatment, the plates are centrifuged and the supernatant were collected and assayed for cytokines IFN-α2a, IL-6, IL29 and TNF-α using the Meso Scale Discovery (MSD) assay platform according to the manufacturer's instructions. Briefly, 25 μL of cell culture supernatants were incubated for 1 h at Room Temperature (RT) in custom Multi-Spot 96-well plates prior coated with capture antibodies. After washing, SULFO-TAG® labeled detection antibodies were added to each of the wells and incubated for 1 h RT before adding a read buffer.

human TLR7 = biological target: T1, human TLR7 (Homo sapiens, UniProt Q9NYK1); assay: HEK-Blue hTLR7 reporter cell assay (SEAP, NF-kB/AP-1) for stimulation of human TLR7; details: HEK-Blue hTLR7 cells, 24 h incubation, SEAP readout; read-out: TLR7_EC50
T1 construct: host or cells: HEK293 (HEK-Blue hTLR7)
T1 sequence (Q9NYK1 27-1049): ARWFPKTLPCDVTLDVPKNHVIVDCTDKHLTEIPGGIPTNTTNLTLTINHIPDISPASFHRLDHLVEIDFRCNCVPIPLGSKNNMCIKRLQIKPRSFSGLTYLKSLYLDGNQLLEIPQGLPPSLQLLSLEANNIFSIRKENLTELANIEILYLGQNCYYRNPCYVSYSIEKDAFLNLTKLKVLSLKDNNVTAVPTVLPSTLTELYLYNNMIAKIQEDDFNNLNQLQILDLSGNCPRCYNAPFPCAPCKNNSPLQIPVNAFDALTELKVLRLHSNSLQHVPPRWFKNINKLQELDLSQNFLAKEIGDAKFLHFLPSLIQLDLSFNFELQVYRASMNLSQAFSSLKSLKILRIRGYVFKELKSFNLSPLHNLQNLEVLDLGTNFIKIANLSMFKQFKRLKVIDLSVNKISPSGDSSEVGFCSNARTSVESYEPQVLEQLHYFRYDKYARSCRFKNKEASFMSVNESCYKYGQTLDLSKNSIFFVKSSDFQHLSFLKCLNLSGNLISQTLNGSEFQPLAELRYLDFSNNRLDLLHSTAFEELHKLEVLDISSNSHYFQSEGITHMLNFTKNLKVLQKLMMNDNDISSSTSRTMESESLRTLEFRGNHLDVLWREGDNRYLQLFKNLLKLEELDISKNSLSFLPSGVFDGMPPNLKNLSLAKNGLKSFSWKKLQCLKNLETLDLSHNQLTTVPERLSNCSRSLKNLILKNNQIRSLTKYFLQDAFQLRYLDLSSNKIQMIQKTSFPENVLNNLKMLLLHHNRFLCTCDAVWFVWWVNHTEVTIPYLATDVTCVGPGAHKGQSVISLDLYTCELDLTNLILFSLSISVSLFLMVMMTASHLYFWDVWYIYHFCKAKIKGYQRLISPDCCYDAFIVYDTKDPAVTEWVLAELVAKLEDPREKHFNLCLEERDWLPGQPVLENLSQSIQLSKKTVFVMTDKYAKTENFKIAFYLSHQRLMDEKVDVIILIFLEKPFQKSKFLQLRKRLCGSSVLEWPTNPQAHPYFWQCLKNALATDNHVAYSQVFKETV
Method in brief: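 HEK293 cells expressing hTLR7 with NF-κB/AP-1-driven SEAP reporter, seeded 3.10E4 cells/well, pre-incubated 18–24 h, then exposed to 3-fold compound dilutions (0.01–20 μM) for 24 h at 37 °C. Supernatant SEAP read with QUANTI-Blue; EC50 as concentration giving 50% activation.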

IL-6 = IL-6 cytokine activation in human PBMC (MSD assay); details: Homo sapiens, PBMC, 24 h, read-out: IL6 EC50
Experimental: as §1, §2, §3, §4

IFN-α2a = IFN-α2a cytokine activation in human PBMC (MSD assay); details: Homo sapiens, PBMC, 24 h
Experimental: as §1, §2, §3, §4

IL29 = IL29 cytokine activation in human PBMC (MSD assay); details: Homo sapiens, PBMC, 24 h
Experimental: as §1, §2, §3, §4

Row | SMILES | EC50 (TNF-α) [nM] | EC50 (human TLR7) [nM] | EC50 (IL-6) [nM] | EC50 (IFN-α2a) [nM] | EC50 (IL29) [nM]
1 | CCCCc1nc2c(N)nnc(OC(C)C)c2n1C[C@H]1CC[C@H](CN)CC1 [Compound 20] | 2400 | 28 | 83 | 0.3 | 0.3
2 | CCCCc1nc2c(N)nnc(N(C)Cc3ccc(CN(C)C)cc3)c2n1C [Compound 43, 2-butyl-N7-(4-((dimethylamino)methyl)benzyl)-N7,1-dimethyl-1H-imidazo[4,5-d]pyridazine-4,7-diamine] | 21 | – | 3 | 22 | 15
